Data on 25 compounds can be found in US20230096028A1, “BICYCLIC HETEROCYCLYL COMPOUNDS AND USES THEREOF” (Revolution Medicines, Inc., priority 2019, published 2023).

The structures appear in SMILES notation. Like-named read-outs stand apart in the source and are kept apart here.

Experiment [1] concerns PC-9 cells (EGFR Ex19Del). Kind of experiment: Potency Assay: pERK (SOS1 pERK IC50 Assay, AlphaLISA SureFire Ultra p-ERK1/2). It is filed as cell-based. As to conditions: Homo sapiens, read-out: SOS1 pERK IC50. How it is done:
The purpose of this assay is to measure the ability of test compounds to inhibit SOS1 function in cells. SOS1 activates RAS proteins by catalyzing the conversion of RAS GDP to RAS GTP in response to receptor tyrosine kinase activation. […] The procedure described below measures the level of cellular pERK in response to test compounds in PC-9 cells (EGFR Ex19Del).
PC-9 cells were grown and maintained using media and procedures recommended by the ATCC. On the day prior to compound addition, cells were plated in 384-well cell culture plates (40 μL/well) and grown overnight in a 37° C., 5% CO2 incubator. Test compounds were prepared in 10, 3-fold dilutions in DMSO, with a top concentration of 10 mM. On the day of the assay, 40 nL of test compound was added to each well of cell culture plate using an Echo550 liquid handler (LabCyte). Concentrations of test compound were tested in duplicate with highest test concentration being 10 μM. After compound addition, cells were incubated for 1 hour at 37° C., 5% CO2. Following incubation, culture medium was removed and cells were washed once with phosphate buffered saline.
Cellular pERK level was determined using the AlphaLISA SureFire Ultra p-ERK1/2 Assay Kit (PerkinElmer). Cells were lysed in 25 μL lysis buffer, with shaking at 600 RPM at room temperature for 15 minutes. Lysate (10 μL) was transferred to a 384-well Opti-plate (PerkinElmer) and 5 μL acceptor mix was added. The plate was centrifuged at 1000 RPM for 1 minute, and incubated in the dark for 2 hours. Following this incubation, 5 μL of donor mix was added, the plate was sealed and centrifuged at 1000 RPM for 1 minute, and the mixture was incubated for 2 hours at room temperature. Signal was read on an Envision plate reader (PerkinElmer) using standard AlphaLISA settings. Analysis of raw data was carried out in Excel (Microsoft) and Prism (GraphPad). Signal was plotted vs. the decadal logarithm of compound concentration, and IC50 was determined by fitting a 4-parameter sigmoidal concentration response model.
A general note: Bead proximity is the source of the signal in Alpha formats.

Experiment [2] concerns the target T1, SOS1 catalytic domain (residues 564-1049) (Homo sapiens, UniProt Q07889).
T1 sequence (Q07889 564-1049): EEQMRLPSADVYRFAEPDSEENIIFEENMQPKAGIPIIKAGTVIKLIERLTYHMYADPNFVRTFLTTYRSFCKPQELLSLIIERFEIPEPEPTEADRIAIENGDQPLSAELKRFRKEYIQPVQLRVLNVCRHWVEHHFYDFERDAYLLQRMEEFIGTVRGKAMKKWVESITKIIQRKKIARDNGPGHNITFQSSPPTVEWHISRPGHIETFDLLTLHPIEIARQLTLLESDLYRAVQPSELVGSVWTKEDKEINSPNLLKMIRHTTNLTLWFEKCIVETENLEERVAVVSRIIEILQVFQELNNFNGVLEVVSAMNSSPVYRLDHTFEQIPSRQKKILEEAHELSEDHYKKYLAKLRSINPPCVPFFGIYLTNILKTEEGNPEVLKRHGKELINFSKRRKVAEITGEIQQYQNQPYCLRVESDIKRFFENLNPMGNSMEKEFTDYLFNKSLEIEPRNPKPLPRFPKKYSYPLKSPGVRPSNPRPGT
The experiment is described as follows: Mode of Action Assay: inhibition of SOS1 nucleotide exchange activity (SOS1 TR-FRET IC50 Assay).

[3] abbreviates: PC-9 cells (EGFR Ex19Del), 1 hour incubation, AlphaLISA p-ERK1/2.

As a reminder, the IC50 is the concentration that inhibits the measured activity by half. As for `CC(Nc1nc(Cl)nc2c1CN(C(=O)N1CCOCC1)C2)c1cccc2c1C[C@H](CO)C2` (stereo in doubt) [Example 464, (2-chloro-4-(((R)-1-((R)-2-(hydroxymethyl)-2,3-dihydro-1H-inden-4-yl)ethyl)amino)-5,7-dihydro-6H-pyrrolo[3,4-d]pyrimidin-6-yl)(morpholino)methanone], the values for the IC50 in experiment [1] (setting [3]) and in experiment [2] were greater than 1000 nM and less than 1000 nM, respectively. For `CC(Nc1nc(Cl)nc2c1CN(C(=O)N1CCOCC1)C2)c1cccc2c1C[C@@H](CO)C2` (stereo in doubt) [Example 465, (2-chloro-4-(((R)-1-((S)-2-(hydroxymethyl)-2,3-dihydro-1H-inden-4-yl)ethyl)amino)-5,7-dihydro-6H-pyrrolo[3,4-d]pyrimidin-6-yl)(morpholino)methanone] the same measures were greater than 1000 nM and greater than 1000 nM. Consider `Cc1nc2c(c(N[C@H](C)c3cc(N)cc(C(F)(F)F)c3)n1)CN(S(=O)(=O)N1CCN(C)CC1)C2` [Example 38, (R)—N-(1-(3-amino-5-(trifluoromethyl)phenyl)ethyl)-2-methyl-6-((4-methylpiperazin-1-yl)sulfonyl)-6,7-dihydro-5H-pyrrolo[3,4-d]pyrimidin-4-amine], for which the 50% inhibitory concentration (IC50) in experiment [1] (setting [3]) and in experiment [2] was less than 1000 nM in each case.

`C[C@@H](Nc1ncnc2c1CN(CC1CCOC1)C2)c1cc(N)cc(C(F)(F)F)c1` (stereo partly drawn) [Example 54, N-[(1R)-1-[3-amino-5-(trifluoromethyl)phenyl]ethyl]-6-(tetrahydrofuran-3-ylmethyl)-5,7-dihydropyrrolo[3,4-d]pyrimidin-4-amine]: the IC50 in experiment [1] (setting [3]) and in experiment [2] was greater than 1000 nM each time. `C[C@@H](Nc1nc(O)nc2c1CN(C(=O)N1CCOCC1)C2)c1cc(N)cc(C(F)(F)F)c1` [Example 55]: the IC50 in experiment [1] (setting [3]) is greater than 1000 nM; in experiment [2], less than 1000 nM.

Consider `Cc1nc2c(c(N[C@H](C)c3cc(N)cc(C(F)(F)F)c3)n1)CN(CC1CCOC1)CC2` (stereo partly drawn) [Example 56, N-[(1R)-1-[3-amino-5-(trifluoromethyl)phenyl]ethyl]-2-methyl-6-(tetrahydrofuran-3-ylmethyl)-7,8-dihydro-5H-pyrido[4,3-d]pyrimidin-4-amine], for which the IC50 was greater than 1000 nM in experiment [1] (setting [3]) and less than 1000 nM in experiment [2].

For `C[C@@H](Nc1nc(Cl)nc2c1CN([C@H]1CC[C@H](C(=O)N(C)C)CC1)C2)c1cc(N)cc(C(F)(F)F)c1` [Example 57, 4-[4-[[(1R)-1-[3-amino-5-(trifluoromethyl)phenyl]ethyl]amino]-2-chloro-5,7-dihydropyrrolo[3,4-d]pyrimidin-6-yl]-N,N-dimethyl-cyclohexanecarboxamide], the half-maximal inhibitory concentration (IC50) in experiment [1] (setting [3]) and in experiment [2] was greater than 1000 nM each time.

In the case of `C[C@@H](Nc1nc(Cl)nc2c1CN(C(=O)C1CCN(C)CC1)C2)c1cc(N)cc(C(F)(F)F)c1` [Example 58, [4-[[(1R)-1-[3-amino-5-(trifluoromethyl)phenyl]ethyl]amino]-2-chloro-5,7-dihydropyrrolo[3,4-d]pyrimidin-6-yl]-(1-methyl-4-piperidyl)methanone], the IC50 in experiment [1] (PC-9, 1 h) was less than 1000 nM; in experiment [2] it was less than 1000 nM.

For `Cc1nc2c(c(N[C@H](C)c3cc(N)cc(C(F)(F)F)c3)n1)CN(C(=O)C1CCN(C)CC1)C2` [Example 109, [4-[[(1R)-1-[3-amino-5-(trifluoromethyl)phenyl]ethyl]amino]-2-methyl-5,7-dihydropyrrolo[3,4-d]pyrimidin-6-yl]-(1-methyl-4-piperidyl)methanone], the concentration for half-maximal inhibition (IC50) is greater than 1000 nM in experiment [1] (PC-9, 1 h) and less than 1000 nM in experiment [2]. In the case of `Cc1nc2c(c(N[C@H](C)c3cc(N)cc(C(F)(F)F)c3)n1)CN(CC1CCOC1)C2` (stereo partly drawn) [Example 111, N-[(1R)-1-[3-amino-5-(trifluoromethyl)phenyl]ethyl]-2-methyl-6-(tetrahydrofuran-3-ylmethyl)-5,7-dihydropyrrolo[3,4-d]pyrimidin-4-amine], the IC50 in experiment [1] (setting [3]) and in experiment [2] was greater than 1000 nM each time. In the case of `C[C@@H](Nc1nc(Cl)nc2c1CCN(CC1CCOC1)CC2)c1cc(N)cc(C(F)(F)F)c1` (stereo partly drawn) [Example 113, N-[(1R)-1-[3-amino-5-(trifluoromethyl)phenyl]ethyl]-2-chloro-7-(oxolan-3-ylmethyl)-5H,6H,7H,8H,9H-pyrimido[4,5-d]aze-pin-4-amine], the IC50 in experiment [2] is greater than 1000 nM.

For `C[C@@H](Nc1nc(Cl)nc2c1CN(C(=O)C1(c3ncccn3)CC1)CC2)c1cc(N)cc(C(F)(F)F)c1` [Example 191], the half-maximal inhibitory concentration (IC50) in experiment [2] is greater than 1000 nM.

Take `COc1ccc(C2(C(=O)N3CCc4nc(Cl)nc(N[C@H](C)c5cc(N)cc(C(F)(F)F)c5)c4C3)COC2)cc1` [Example 192]: the half-inhibitory concentration (IC50) in experiment [2] is greater than 1000 nM. Turning to `COC1(C(=O)N2CCc3nc(Cl)nc(N[C@H](C)c4cc(N)cc(C(F)(F)F)c4)c3C2)CCOC1` (some centres unmarked) [Example 198], the IC50 in experiment [2] was greater than 1000 nM.

As to `C[C@@H](Nc1nc(Cl)nc2c1CN(C(=O)C1(N3CCOCC3)CCC1)CC2)c1cc(N)cc(C(F)(F)F)c1` [Example 207], the half-inhibitory concentration (IC50) in experiment [2] was greater than 1000 nM.

In turn, `C[C@@H](Nc1nc(Cl)nc2c1CN(C(=O)[C@]13CCC[C@H]1C3(F)F)CC2)c1cc(N)cc(C(F)(F)F)c1` [Example 217] returned an IC50 in experiment [2] greater than 1000 nM. On to `COc1ccc(C(=O)N2CCc3nc(Cl)nc(N[C@H](C)c4cc(N)cc(C(F)(F)F)c4)c3C2)nc1OC` [Example 244], for which the IC50 in experiment [1] (setting [3]) was greater than 1000 nM. Same read-out and setting: for `C[C@@H](Nc1nc(Cl)nc2c1CN(C(=O)c1cccc(C(F)(F)F)n1)CC2)c1cc(N)cc(C(F)(F)F)c1` [Example 251] the value was greater than 1000 nM. Turning to `C[C@@H](Nc1nc(Cl)nc2c1CN(C(=O)c1ncccc1C(F)(F)F)CC2)c1cc(N)cc(C(F)(F)F)c1` [Example 253], the IC50 in experiment [2] was greater than 1000 nM. In the case of `C[C@@H](Nc1nc(Cl)nc2c1CN(C(=O)C1CN(C)CCO1)C2)c1cccc(C(F)(F)F)c1` (some centres unmarked) [Example 277], the half-maximal inhibitory concentration (IC50) in experiment [1] (setting [3]) was greater than 1000 nM. Turning to `C[C@@H](Nc1nc(Cl)nc2c1CN(C(=O)N1CCOc3ccncc31)C2)c1cccc(C(F)(F)F)c1` [Example 373], the IC50 in experiment [2] was less than 1000 nM. Turning to `C[C@@H](Nc1nc(Cl)nc2c1CN(S(=O)(=O)c1ccccn1)CC2)c1cc(N)cc(C(F)(F)F)c1` [Example 459], the concentration for half-maximal inhibition (IC50) in experiment [1] (setting [3]) is less than 1000 nM. Compound `C[C@@H](Nc1nc(Cl)nc2c1CN(C(=O)N1CCOCC1)C2)c1cc(F)cc(C(F)(F)F)c1` [Example 511, 2-chloro-N-[(1R)-1-[3-fluoro-5-(trifluoromethyl)phenyl]ethyl]-6-(morpholine-4-carbonyl)-5H,6H,7H-pyrrolo[3,4-d]pyrimidin-4-amine] returned an IC50 in experiment [2] greater than 1000 nM.

`C[C@@H](Nc1nc(Cl)nc2c1CC1(CC2)OCCO1)c1cc(N)cc(C(F)(F)F)c1` [Example 514, N-[(1R)-1-[3-amino-5-(trifluoromethyl)phenyl]ethyl]-2′-chloro-7′,8′-dihydro-5′H-spiro[1,3-dioxolane-2,6′-quinazoline]-4′-amine] had a half-inhibitory concentration (IC50) in experiment [2] greater than 1000 nM.

In experiment [2], `Cc1cc([C@@H](C)Nc2nc(Cl)nc3c2CN(C(=O)N2CCOCC2)C3)cc(C(F)(F)F)c1` [Example 515, 2-chloro-N-[(1R)-1-[3-methyl-5-(trifluoromethyl)phenyl]ethyl]-6-(morpholine-4-carbonyl)-5H,6H,7H-pyrrolo[3,4-d]pyrimidin-4-amine] had a half-inhibitory concentration (IC50) greater than 1000 nM.
